Data taken from US20230278972A1, “SUBSTITUTED HALOALKYL SULFONANILIDE HERBICIDES” (FMC Corporation, priority 2020, published 2023).

How the values were obtained:
Assay type in all cases: in vivo
[1] = tested on: wheat (Triticum aestivum); experiment: Test A postemergence, wheat; details: Postemergence, 0 to 100 scale (0 no effect, 100 complete control); for Plant response rating, Wheat: 125 g ai/ha; for Wheat plant response rating: 500 g ai/ha, visual injury vs untreated controls after approx. 10 days
Summary of the method: (§1)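 Compounds in non-phytotoxic solvent with surfactant. Soil: loam/sand. Preemergence via directed soil spray after seeding; postemergence on seedlings 2–10 cm, one- to two-leaf.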

[2] = tested on: pigweed (Amaranthus retroflexus); experiment: Test A preemergence, pigweed; details: for Pigweed plant response rating: visual injury on 0 to 100 scale (0 no effect, 100 complete control), approximately 10 days; for Plant response rating, Pigweed: 0 to 100 scale (0 no effect, 100 complete control)
Summary of the method: as §1

[3] = tested on: Foxtail, Giant (giant foxtail, Setaria faberi); experiment: Test A preemergence, Foxtail, Giant; details: Preemergence; for Foxtail, Giant plant response rating: visual injury on 0 to 100 scale (0 no effect, 100 complete control), approximately 10 days; for Plant response rating, Foxtail, Giant: 0 to 100 scale (0 no effect, 100 complete control)
Summary of the method: (§2)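 Preemergence: seeded pots of loam plus sand received a directed soil spray. Postemergence: seedlings at one to two leaves, 2 to 10 cm high, were oversprayed. Each compound was formulated in a non-phytotoxic solvent mix that included a surfactant.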

[4] = tested on: ragweed (common ragweed, Ambrosia artemisiifolia); experiment: Test A preemergence, ragweed; details: Preemergence; for Ragweed plant response rating: visual injury on 0 to 100 scale (0 no effect, 100 complete control), approximately 10 days; for Plant response rating, Ragweed: 0 to 100 scale (0 no effect, 100 complete control)
Summary of the method: as §2

[5] = tested on: Ryegrass, Italian (Italian ryegrass, Lolium multiflorum); experiment: Test A preemergence, Ryegrass, Italian; details: Preemergence; for Ryegrass, Italian plant response rating: visual injury on 0 to 100 scale (0 no effect, 100 complete control), approximately 10 days; for Plant response rating, Ryegrass, Italian: 0 to 100 scale (0 no effect, 100 complete control)
Summary of the method: as §2

kochia (Bassia scoparia) [6] = experiment: Test A preemergence, kochia; details: Preemergence; for Kochia plant response rating: visual injury on 0 to 100 scale (0 no effect, 100 complete control), approximately 10 days; for Plant response rating, Kochia: 0 to 100 scale (0 no effect, 100 complete control)
Summary of the method: as §2

[7] = tested on: ragweed (common ragweed, Ambrosia artemisiifolia); experiment: Test A postemergence, ragweed; details: Postemergence, 0 to 100 scale (0 no effect, 100 complete control); for Plant response rating, Ragweed: 125 g ai/ha; for Ragweed plant response rating: 500 g ai/ha, visual injury vs untreated controls after approx. 10 days
Summary of the method: as §2

[8] = tested on: galium (catchweed bedstraw, Galium aparine); experiment: Test A postemergence, galium; details: Postemergence, 0 to 100 scale (0 no effect, 100 complete control); for Plant response rating, Galium: 125 g ai/ha; for Galium plant response rating: 500 g ai/ha, visual injury vs untreated controls after approx. 10 days
Summary of the method: as §1

kochia (Bassia scoparia) [9] = experiment: Test A postemergence, kochia; details: Postemergence, 0 to 100 scale (0 no effect, 100 complete control); for Plant response rating, Kochia: 125 g ai/ha; for Kochia plant response rating: 500 g ai/ha, visual injury vs untreated controls after approx. 10 days
Summary of the method: as §2

[10] = tested on: barnyardgrass (Echinochloa crus-galli); experiment: Test A preemergence, barnyardgrass; details: Preemergence; for Barnyardgrass plant response rating: visual injury on 0 to 100 scale (0 no effect, 100 complete control), approximately 10 days; for Plant response rating, Barnyardgrass: 0 to 100 scale (0 no effect, 100 complete control)
Summary of the method: as §2

corn (Zea mays) = experiment: Test A postemergence, corn; details: Postemergence, 0 to 100 scale (0 no effect, 100 complete control); for Plant response rating, Corn: 125 g ai/ha; for Corn plant response rating: 500 g ai/ha, visual injury vs untreated controls after approx. 10 days
Summary of the method: as §2

[11] = tested on: barnyardgrass (Echinochloa crus-galli); experiment: Test A postemergence, barnyardgrass; details: Postemergence, 0 to 100 scale (0 no effect, 100 complete control); for Plant response rating, Barnyardgrass: 125 g ai/ha; for Barnyardgrass plant response rating: 500 g ai/ha, visual injury vs untreated controls after approx. 10 days
Summary of the method: as §1

[12] = tested on: Ryegrass, Italian (Italian ryegrass, Lolium multiflorum); experiment: Test A postemergence, Ryegrass, Italian; details: Postemergence, 0 to 100 scale (0 no effect, 100 complete control); for Plant response rating, Ryegrass, Italian: 125 g ai/ha; for Ryegrass, Italian plant response rating: 500 g ai/ha, visual injury vs untreated controls after approx. 10 days
Summary of the method: as §2

[13] = tested on: pigweed (Amaranthus retroflexus); experiment: Test A postemergence, pigweed; details: Postemergence, 0 to 100 scale (0 no effect, 100 complete control); for Plant response rating, Pigweed: 125 g ai/ha; for Pigweed plant response rating: 500 g ai/ha, visual injury vs untreated controls after approx. 10 days
Summary of the method: as §2

[14] = tested on: blackgrass (Alopecurus myosuroides); experiment: Test A postemergence, blackgrass; details: Postemergence, 0 to 100 scale (0 no effect, 100 complete control); for Plant response rating, Blackgrass: 125 g ai/ha; for Blackgrass plant response rating: 500 g ai/ha, visual injury vs untreated controls after approx. 10 days
Summary of the method: as §2

[15] = tested on: Foxtail, Giant (giant foxtail, Setaria faberi); experiment: Test A postemergence, Foxtail, Giant; details: Postemergence, 0 to 100 scale (0 no effect, 100 complete control); for Plant response rating, Foxtail, Giant: 125 g ai/ha; for Foxtail, Giant plant response rating: 500 g ai/ha, visual injury vs untreated controls after approx. 10 days
Summary of the method: as §2

[16] = 125 g ai/ha, visual injury, approx. 10 days

Row | SMILES | Plant response rating, Wheat [1] | Wheat plant response rating [1] | Plant response rating, Pigweed ([2]; 500 g ai/ha) | Plant response rating, Foxtail, Giant ([3]; 500 g ai/ha) | Plant response rating, Ragweed ([4]; 500 g ai/ha) | Plant response rating, Ryegrass, Italian ([5]; 500 g ai/ha) | Plant response rating, Kochia (kochia (Bassia scoparia) [6]; 500 g ai/ha) | Plant response rating, Ragweed [7] | Ragweed plant response rating [7] | Plant response rating, Galium [8] | Galium plant response rating [8] | Plant response rating, Kochia (kochia (Bassia scoparia) [9]) | Kochia plant response rating (kochia (Bassia scoparia) [9]) | Plant response rating, Barnyardgrass ([10]; 500 g ai/ha) | Plant response rating, Corn (corn (Zea mays)) | Corn plant response rating (corn (Zea mays)) | Plant response rating, Barnyardgrass [11] | Barnyardgrass plant response rating [11] | Plant response rating, Ryegrass, Italian [12] | Ryegrass, Italian plant response rating [12] | also measured
1 | Cc1cc(Cl)c(C2=NOC(C)(C)C2)cc1N(S(=O)(=O)C(F)(F)F)S(=O)(=O)C(F)(F)F [Compound 184] | 0 | 0 | 100 | 90 | 90 | 50 | 0 | 40 | 70 | 80 | 90 | 0 | 30 | 100 | 0 | 0 | 20 | 50 | 0 | 0 | Pigweed plant response rating ([2]; 125 g ai/ha): 70; Foxtail, Giant plant response rating ([3]; 125 g ai/ha): 30; Ragweed plant response rating ([4]; 125 g ai/ha): 80; Ryegrass, Italian plant response rating ([5]; 125 g ai/ha): 30; Kochia plant response rating (kochia (Bassia scoparia) [6]; 125 g ai/ha): 0; Barnyardgrass plant response rating ([10]; 125 g ai/ha): 70; Plant response rating, Pigweed [13]: 20; Pigweed plant response rating [13]: 40; Plant response rating, Blackgrass [14]: 0; Blackgrass plant response rating [14]: 20; Plant response rating, Foxtail, Giant [15]: 0; Foxtail, Giant plant response rating [15]: 0
2 | Cc1cc(Cl)c(C2=NOC3(CCCC3)C2)cc1NS(=O)(=O)C(F)(F)F [Compound 185] | 0 | 0 | 80 | 100 | 70 | 100 | 0 | 0 | 40 | 30 | 70 | 0 | 10 | 100 | 0 | 0 | 0 | 20 | 0 | 0 | Pigweed plant response rating ([2]; 125 g ai/ha): 50; Foxtail, Giant plant response rating ([3]; 125 g ai/ha): 50; Ragweed plant response rating ([4]; 125 g ai/ha): 20; Ryegrass, Italian plant response rating ([5]; 125 g ai/ha): 50; Kochia plant response rating (kochia (Bassia scoparia) [6]; 125 g ai/ha): 0; Barnyardgrass plant response rating ([10]; 125 g ai/ha): 70; Plant response rating, Pigweed [13]: 0; Pigweed plant response rating [13]: 40; Plant response rating, Blackgrass [14]: 0; Blackgrass plant response rating [14]: 10; Plant response rating, Foxtail, Giant [15]: 0; Foxtail, Giant plant response rating [15]: 0
3 | Cc1cc(Cl)c(C2=NOC3(CCCC3)C2)cc1N(S(=O)(=O)C(F)(F)F)S(=O)(=O)C(F)(F)F [Compound 186] | 0 | 30 | 80 | 100 | 50 | 100 | 70 | 40 | 60 | 60 | 80 | 10 | 40 | 100 | 0 | 30 | 10 | 20 | 0 | 20 | Pigweed plant response rating ([2]; 125 g ai/ha): 20; Foxtail, Giant plant response rating ([3]; 125 g ai/ha): 60; Ragweed plant response rating ([4]; 125 g ai/ha): 20; Ryegrass, Italian plant response rating ([5]; 125 g ai/ha): 60; Kochia plant response rating (kochia (Bassia scoparia) [6]; 125 g ai/ha): 20; Barnyardgrass plant response rating ([10]; 125 g ai/ha): 60; Plant response rating, Pigweed [13]: 0; Pigweed plant response rating [13]: 50; Plant response rating, Blackgrass [14]: 0; Blackgrass plant response rating [14]: 20; Plant response rating, Foxtail, Giant [15]: 0; Foxtail, Giant plant response rating [15]: 20
4 | C#CCN(CC#C)C(=O)c1cc(NS(=O)(=O)C(F)(F)F)c(C)cc1C [Compound 187] | 70 | 70 | 80 | 100 | 90 | 100 | 80 | 80 | 90 | 80 | 80 | 50 | 70 | 100 | 80 | 90 | 90 | 90 | 90 | 80 | Pigweed plant response rating ([2]; 125 g ai/ha): 70; Foxtail, Giant plant response rating ([3]; 125 g ai/ha): 100; Ragweed plant response rating ([4]; 125 g ai/ha): 70; Ryegrass, Italian plant response rating ([5]; 125 g ai/ha): 100; Kochia plant response rating (kochia (Bassia scoparia) [6]; 125 g ai/ha): 80; Barnyardgrass plant response rating ([10]; 125 g ai/ha): 100; Plant response rating, Pigweed [13]: 30; Pigweed plant response rating [13]: 60; Plant response rating, Blackgrass [14]: 20; Blackgrass plant response rating [14]: 20; Plant response rating, Foxtail, Giant [15]: 80; Foxtail, Giant plant response rating [15]: 90
5 | CCN(CC)C(=O)c1cc(NS(=O)(=O)C(F)(F)F)c(C)cc1C [Compound 188] | 40 | 70 | 90 | 100 | 50 | 100 | 60 | 20 | 70 | 40 | 50 | 0 | 0 | 90 | 10 | 30 | 10 | 70 | 0 | 40 | Plant response rating, Pigweed [2, 16]: 50; Plant response rating, Foxtail, Giant [3, 16]: 0; Plant response rating, Ragweed [4, 16]: 40; Plant response rating, Ryegrass, Italian [5, 16]: 50; Plant response rating, Kochia (kochia (Bassia scoparia) [6]; [16]): 20; Plant response rating, Barnyardgrass [10, 16]: 60; Plant response rating, Pigweed [13]: 20; Pigweed plant response rating [13]: 80; Plant response rating, Blackgrass [14]: 0; Blackgrass plant response rating [14]: 0; Plant response rating, Foxtail, Giant [15]: 0; Foxtail, Giant plant response rating [15]: 20
